Laboratory results: ChEMBL document CHEMBL5120971, “Network Pharmacology Research and Dual-omic Analyses Reveal the Molecular Mechanism of Natural Product Nodosin Inhibiting Muscle-Invasive Bladder Cancer in Vitro and in Vivo” (J Nat Prod, 2022)
Active and inactive are the calls of the source.

Assays:
T-24 [1] = experiment: Induction of apoptosis in human T24 cells assessed as late apoptotic cells at 8 uM measured after 48 hrs by Annexin V-FITC/propidium iodide staining based flow cytometry (reference value: 0.74%); type: functional
T-24 [2] = experiment: Cytotoxicity against human T24 cells assessed as reduction in cell growth by CCK8 assay; type: functional, cell-based
[3] = Toxicity in human T24 cells xenografted BALB/c mouse assessed as effect on body weight at 2 mg/kg, ip administered at 2 days interval; type: organism-based, T-24; conditions: in vivo, 48 h
T-24 [4] = experiment: Induction of apoptosis in human T24 cells assessed as late apoptotic cells at 4 uM measured after 48 hrs by Annexin V-FITC/propidium iodide staining based flow cytometry (reference value: 0.74%); type: functional
T-24 [5] = experiment: Induction of apoptosis in human T24 cells assessed as effect on SQSTM1 expression at 6 uM measured after 24 to 30 hrs by proteomic analysis; type: functional, cell-based; conditions: time 24-30 hrs
T-24 [6] = experiment: Antitumor activity against human T24 cells xenografted in BALB/c mouse assessed as reduction in tumor weight at 2 mg/kg, ip administered at 2 days interval; type: functional, organism-based
T-24 [7] = experiment: Up regulation of SLC7A11 gene expression in human T24 cells at 6 uM measured after 12 to 18 hrs by transcriptome analysis; type: functional, cell-based; conditions: time 12-18 hrs
T-24 [8] = experiment: Induction of apoptosis in human T24 cells assessed as effect on TRIAP1 expression at 6 uM measured after 24 to 30 hrs by proteomic analysis; type: functional, cell-based; conditions: time 24-30 hrs
T-24 [9] = experiment: Up regulation of HMOX1 expression in human T24 cells at 6 uM measured after 24 to 30 hrs by proteomic analysis; type: functional, cell-based; conditions: time 24-30 hrs
T-24 [10] = experiment: Antimigratory activity against human T24 cells assessed as down regulation of ITGA3 expression at 6 uM measured after 24 to 30 hrs by proteomic analysis; type: functional, cell-based; conditions: time 24-30 hrs
T-24 [11] = experiment: Cytotoxicity against human T24 cells assessed as reduction in cell growth measured after 24 hrs by live/dead staining based fluorescence assay; type: functional; conditions: dose 4-10 µM, DDE = dose-dependent effect
UMUC3 [12] = experiment: Cytotoxicity against human UMUC3 cells assessed as reduction in cell growth at 4 uM by CCK8 assay; type: functional, cell-based; conditions: time 24-72 hrs, TDE = time-dependent effect
T-24 [13] = experiment: Induction of autophagy in human T24 cells assessed as effect on FLCN gene expression at 6 uM measured after 12 to 18 hrs by transcriptome analysis; type: functional, cell-based; conditions: time 12-18 hrs
UMUC3 [14] = experiment: Cytotoxicity against human UMUC3 cells assessed as reduction in cell growth by CCK8 assay; type: functional, cell-based
T-24 [15] = experiment: Antitumor activity against human T24 cells xenografted in BALB/c mouse assessed as reduction in Ki67 expression at 2 mg/kg, ip administered at 2 days interval by immunohistochemical analysis; type: functional, organism-based
T-24 [16] = experiment: Induction of morphological changes in human T24 cells assessed as cytoplasmic condensation at 4 to 12 uM measured after 48 hrs by microscopy; type: functional, cell-based; conditions: dose 4-12 µM
T-24 [17] = experiment: Effect on MDC1 expression in human T24 cells at 6 uM measured after 24 to 30 hrs by proteomic analysis; type: functional, cell-based; conditions: time 24-30 hrs
T-24 [18] = experiment: Inhibition of DNA replication in human T24 cells at 4 to 10 uM measured after 24 hrs by EdU staining based fluorescence assay; type: functional, cell-based; conditions: dose 4-10 µM
T-24 [19] = experiment: Induction of apoptosis in human T24 cells assessed as up regulation of SQSTM1 gene expression at 6 uM measured after 12 to 18 hrs by transcriptome analysis; type: functional, cell-based; conditions: time 12-18 hrs
T-24 [20] = experiment: Induction of apoptosis in human T24 cells assessed as up regulation of HMOX1 expression at 6 to 12 uM measured after 24 to 30 hrs by Western blot analysis; type: functional, cell-based; conditions: dose 6-12 µM, time 24-30 hrs
T-24 [21] = experiment: Induction of autophagy in human T24 cells assessed as up regulation of MAP1LC3B gene expression at 6 uM measured after 12 to 18 hrs by transcriptome analysis; type: functional, cell-based; conditions: time 12-18 hrs
T-24 [22] = experiment: Induction of autophagy in human T24 cells assessed as effect on SQSTM1 gene expression at 6 uM measured after 12 to 18 hrs by transcriptome analysis; type: functional, cell-based; conditions: time 12-18 hrs
T-24 [23] = experiment: Induction of apoptosis in human T24 cells assessed as early apoptotic cells at 8 uM measured after 48 hrs by Annexin V-FITC/propidium iodide staining based flow cytometry (reference value: 1.2%); type: functional
SW780 = experiment: Cytotoxicity against human SW780 cells assessed as reduction in cell growth by CCK8 assay; type: functional, cell-based
T-24 [24] = experiment: Induction of autophagy in human T24 cells assessed as effect on PRKAA2 gene expression at 6 uM measured after 12 to 18 hrs by transcriptome analysis; type: functional, cell-based; conditions: time 12-18 hrs
T-24 [25] = experiment: Induction of apoptosis in human T24 cells assessed as effect on ARL6IP1 expression at 6 uM measured after 24 to 30 hrs by proteomic analysis; type: functional, cell-based; conditions: time 24-30 hrs
T-24 [26] = experiment: Antiproliferative activity against human T24 cells assessed as reduction in Ki67 expression at 4 to 12 uM measured after 24 hrs by DAPI staining based immunofluorescence analysis; type: functional, cell-based; conditions: dose 4-12 µM
T-24 [27] = experiment: Effect on NBN expression in human T24 cells at 6 uM measured after 24 to 30 hrs by proteomic analysis; type: functional, cell-based; conditions: time 24-30 hrs
T-24 [28] = experiment: Induction of mitochondrial membrane potential loss in human T24 cells at 8 to 16 uM measured after 24 hrs by JC1 dye based fluorescence assay; type: functional, cell-based; conditions: dose 8-16 µM
T-24 [29] = experiment: Induction of mitochondrial membrane disruption in human T24 cells at 4 to 8 uM measured after 48 hrs by transmission electron microscopy; type: cell-based; conditions: dose 4-8 µM
T-24 [30] = experiment: Effect on CDKN3 expression in human T24 cells at 6 uM measured after 24 to 30 hrs by proteomic analysis; type: functional, cell-based; conditions: time 24-30 hrs
T-24 [31] = experiment: Induction of autophagy in human T24 cells assessed as effect on CISD2 gene expression at 6 uM measured after 12 to 18 hrs by transcriptome analysis; type: functional, cell-based; conditions: time 12-18 hrs
T-24 [32] = experiment: Induction of apoptosis in human T24 cells assessed as viable cells at 8 uM measured after 48 hrs by Annexin V-FITC/propidium iodide staining based flow cytometry (reference value: 97.49%); type: functional; conditions: read-out: Activity
T-24 [33] = experiment: Induction of ROS generation in human T24 cells at 4 to 10 uM measured after 6 hrs by H2DCFDA probe based flow cytometry; type: functional, cell-based; conditions: dose 4-10 µM
T-24 [34] = experiment: Induction of apoptosis in human T24 cells assessed as early apoptotic cells at 6 uM measured after 48 hrs by Annexin V-FITC/propidium iodide staining based flow cytometry (reference value: 1.2%); type: functional
T-24 [35] = experiment: Induction of apoptosis in human T24 cells assessed as effect on RMDN3 expression at 6 uM measured after 24 to 30 hrs by proteomic analysis; type: functional, cell-based; conditions: time 24-30 hrs
T-24 [36] = experiment: Induction of autophagy in human T24 cells assessed as effect on LGALS8 gene expression at 6 uM measured after 12 to 18 hrs by transcriptome analysis; type: functional, cell-based; conditions: time 12-18 hrs
T-24 [37] = experiment: Induction of apoptosis in human T24 cells assessed as early apoptotic cells at 4 uM measured after 48 hrs by Annexin V-FITC/propidium iodide staining based flow cytometry (reference value: 1.2%); type: functional
T-24 [38] = experiment: Up regulation of FTL gene expression in human T24 cells at 6 uM measured after 12 to 18 hrs by transcriptome analysis; type: functional, cell-based; conditions: time 12-18 hrs

C=C1C(=O)[C@]23C[C@H]1C[C@@H](O)[C@H]2[C@@]12CO[C@@H](O)[C@@H]1C(C)(C)CC[C@@H]2OC3=O [NODOSIN]
10.74%: Activity (T-24 [34])
1.34%: Activity (T-24 [4])
3.45 µM: IC50 (UMUC3 [14])
Non-Toxic: Activity [3]
active: Activity (T-24 [2]; DDE = dose-dependent effect) Dde | Activity (T-24 [5]) | Activity (T-24 [6]) | Activity (T-24 [7]) | Activity (T-24 [8]) | Activity (T-24 [9]) | Activity (T-24 [10]) | Activity (T-24 [11]) Dde | Activity (UMUC3 [12]) Tde | Activity (T-24 [13]) | Activity (UMUC3 [14]; DDE = dose-dependent effect) Dde | Activity (T-24 [15]) | Activity (T-24 [16]) | Activity (T-24 [17]) | inhibition (T-24 [18]) | Activity (T-24 [19]) | Activity (T-24 [20]) | Activity (T-24 [21]) | Activity (T-24 [22]) | Activity (SW780; DDE = dose-dependent effect) Dde | Activity (T-24 [24]) | Activity (T-24 [25]) | Activity (T-24 [26]) | Activity (T-24 [27]) | Activity (T-24 [28]) | Activity (T-24 [29]) | Activity (T-24 [30]) | Activity (T-24 [31]) | Activity (T-24 [33]) | Activity (T-24 [35]) | Activity (T-24 [36]) | Activity (T-24 [38])
9.99 µM: IC50 (SW780)
10.54%: Activity (T-24 [23])
2.38%: Activity (T-24 [37])
4.91 µM: IC50 (T-24 [2])
13.17%: Activity (T-24 [1])
75.9%: viability at 8 µM (T-24 [32])
